In patent US20030118577A1, “Use of analogues of superoxide dismutase for treating hepatocellular insufficiencies” (priority 2000, published 2003):

Experiments:
[1] = system: acute hepatic insufficiency induced by acetaminophen; assay: Survival of mice after intraperitoneal acetaminophen (acute hepatic insufficiency); conditions: for percentage of surviving animals: Group XV: APAP 1000 mg/kg, CuDIPS 10 mg/kg (P)
[2] = system: hepatic impairments resulting from the administration of galactosamine-LPS; conditions: prior administration; MIESEL et al. 1995; cited from earlier work
[3] = system: hepatic impairments induced by the administration of acetaminophen or of galactosamine; conditions: simultaneous administration; EP 0333490; cited from earlier work

For `CC(C)c1cc(C(=O)[O-])c(O)c(C(C)C)c1.CC(C)c1cc(C(=O)[O-])c(O)c(C(C)C)c1.[Cu+2]` [CuDIPS, Cu(II)-(diisopropylsalicylate)2], which “effect on survival rate, administered preventively” value ([1]; APAP 1000 mg/kg, 2 hours before (P)) is on record?
The value was “does not significantly increase the survival rate”.

And the “percentage of surviving animals” value ([1]; time 0 h)?
The value was 100%.

What about the “percentage of surviving animals” value ([1]; time 6 h) of the same molecule?
The value was 100%.

And the “percentage of surviving animals” value ([1]; time 8 h)?
The value was 91.6%.

And the “percentage of surviving animals” value ([1]; time 9 h)?
Its value is 83.3%.

What about the “percentage of surviving animals” value ([1]; time 10 h) of the same molecule?
Its value is 75%.

What about the “percentage of surviving animals” value ([1]; time 11 h) of the same molecule?
The value was 58.3%.

What about the “percentage of surviving animals” value ([1]; time 12 h) of the same molecule?
Its value is 58.3%.

And the “percentage of surviving animals” value ([1]; time 13 h)?
Its value is 41.6%.

What about the “percentage of surviving animals” value ([1]; time 14 h) of the same molecule?
The value was 41.6%.

What about the “percentage of surviving animals” value ([1]; time 15 h) of the same molecule?
Its value is 41.6%.

And the “percentage of surviving animals” value ([1]; time 16 h)?
The value was 33.3%.

And the “percentage of surviving animals” value ([1]; time 17 h)?
Its value is 33.3%.

And the “percentage of surviving animals” value ([1]; time 18 h)?
Its value is 25%.

What about the “percentage of surviving animals” value ([1]; time 20 h) of the same molecule?
Its value is 25%.

What about the “percentage of surviving animals” value ([1]; time 22 h) of the same molecule?
Its value is 25%.

What about the “percentage of surviving animals” value ([1]; time 24 h) of the same molecule?
The value was 25%.

Which hepatic impairments [2] does the source give for `C(=NCCCCN=Cc1ccccn1)c1ccccn1.[Cu+2].[O-][Cl+3]([O-])([O-])[O-]` [CuPu(Py)2] here?
The hepatic impairments was “reduced”.

For “CuZnSOD: copper-zinc superoxide dismutases, also known by the name superoxide dismutase-1”, which hepatic impairments [3] is on record?
Its hepatic impairments is “reduced”.
